Legend:
[1] = molecular target: T1, rat FAAH (Rattus norvegicus, UniProt P97612); test: FAAH assay, rat FAAH enzyme inactivation (kinact/Ki); assay type: biochemical; settings: oleamide 50 μM, 30° C.; for kinact/KI: pH 7.4, in vitro, read-out: rFAAH kinact/Ki; for rFAAH kinact/Ki: in vitro, pH 7.4
T1 construct: made in house; host or cells: E. coli
T1 sequence (P97612 1-579): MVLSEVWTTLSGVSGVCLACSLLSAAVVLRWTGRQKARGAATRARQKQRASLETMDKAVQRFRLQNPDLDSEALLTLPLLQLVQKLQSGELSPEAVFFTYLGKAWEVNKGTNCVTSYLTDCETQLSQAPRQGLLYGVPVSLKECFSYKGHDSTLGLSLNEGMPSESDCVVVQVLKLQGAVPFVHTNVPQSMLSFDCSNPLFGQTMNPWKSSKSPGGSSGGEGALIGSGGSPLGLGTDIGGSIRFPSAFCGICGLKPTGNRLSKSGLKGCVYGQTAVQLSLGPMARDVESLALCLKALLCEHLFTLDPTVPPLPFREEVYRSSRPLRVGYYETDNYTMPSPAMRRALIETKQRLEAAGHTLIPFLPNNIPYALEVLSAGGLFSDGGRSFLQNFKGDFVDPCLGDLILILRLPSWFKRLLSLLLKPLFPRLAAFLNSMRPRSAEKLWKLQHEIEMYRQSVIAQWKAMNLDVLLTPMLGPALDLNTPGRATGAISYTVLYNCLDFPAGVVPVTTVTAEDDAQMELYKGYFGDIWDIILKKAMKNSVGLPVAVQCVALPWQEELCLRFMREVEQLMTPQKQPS
Protocol: (§1) The FAAH assay was carried out in 384-well clear polystyrene plates (Evergreen Scientific) in a total volume of 50 μl per well in a manner similar to that described by Mileni et al., Proc. Nat. Acad. Sci. 2008, 105, 12820-12824. All percents are by volume. Serial dilutions of compound were initially prepared in 100% DMSO, and then diluted two-fold into HPLC-grade H2O to give 50% DMSO. To each well, was placed the reaction mixture (40 μl) containing 1-4 nM FAAH, 50 mM NaPi, pH 7.4, 3 mM α-ketoglutarate, 0.15 mM NADH, 7.5 U/ml glutamate dehydrogenase, 2 mM ADP, 1 mM EDTA, and 0.1% Triton X-100 (The concentration shown for each component is the final concentration in the assay). To this mixture, was added 5 μl of a compound of Examples 1 to 101 at various concentrations in 50% DMSO (or 5 μl 50% DMSO for controls). This was immediately followed by the addition of 5 μl oleamide (500 μM) dissolved in 75% EtOH/25% DMSO and the reaction mixture was mixed for 1.5 min. The final concentrations of DMSO and EtOH in the assay were each 7.5%. The reactions were incubated at 30° C. and the absorbance at 340 nm was collected over a period of 90 min with readings taken in 30-second intervals using SpectraMax Plus^384 Microplate Spectrophotometer (Molecular Devices, Sunnyvale, Calif.). The human FAAH and rat FAAH used in the assay was prepared as described in the patent application WO 2006/067613 using wild-type E. coli cells transformed in St. Louis, Mo., U.S.A. The purity of the enzyme was greater than 98% based on an analysis by SDS-polyacrylamide gel electrophoresis followed by Coomassie Blue staining.
(§2) Reaction progress curves were corrected for the non-enzymatic oxidation of NADH by subtraction of absorbancies at each time point obtained from control reactions containing no FAAH enzyme. The loss of enzyme activity as a function of time is well-described by the following mathematical equation (1) for a mono-exponential decay: […]
(§3) where At represents the absorbance at time t, A0 represents the absorbance at time zero, and C represents a constant. Observed rates of enzyme inactivation (kobs) were determined from the non-linear reaction progress curves by fitting the corrected absorbancies to an equation for a mono-exponential decay using the third-party Microsoft Excel plug-in, XLfit (IDBS Limited). Secondary plots of kobs vs. inhibitor concentration were prepared from kobs values obtained from progress curves. Second-order rates for enzyme inactivation, expressed as kinact/Ki (M^−1 s^−1), were calculated from the slopes from linear regression analysis of the secondary plot of kobs vs. inhibitor concentration as defined in following equation (2), where [I]<<Ki:
(§4) The concentration of substrate in the assay was equal to the Km for oleamide of 50 μM. Therefore, reported kinact/Ki values are obtained by multiplying resulting slopes by a factor of two (i.e. slope=kinact/(Ki*2)).
(§5) Table 1, below, lists human FAAH (hFAAH) and rat FAAH (rFAAH) enzyme inhibition values for Examples 1-101 as a ratio of kinact/Ki (M^−1 s^−1).

[2] = molecular target: T2, human FAAH (Homo sapiens, UniProt O00519); test: FAAH assay, human FAAH enzyme inactivation (kinact/Ki); assay type: biochemical; settings: oleamide 50 μM, 30° C.; for kinact/KI: pH 7.4, in vitro, read-out: hFAAH kinact/Ki; for hFAAH kinact/Ki: in vitro, pH 7.4
T2 construct: made in house; host or cells: E. coli
T2 sequence (O00519 1-579): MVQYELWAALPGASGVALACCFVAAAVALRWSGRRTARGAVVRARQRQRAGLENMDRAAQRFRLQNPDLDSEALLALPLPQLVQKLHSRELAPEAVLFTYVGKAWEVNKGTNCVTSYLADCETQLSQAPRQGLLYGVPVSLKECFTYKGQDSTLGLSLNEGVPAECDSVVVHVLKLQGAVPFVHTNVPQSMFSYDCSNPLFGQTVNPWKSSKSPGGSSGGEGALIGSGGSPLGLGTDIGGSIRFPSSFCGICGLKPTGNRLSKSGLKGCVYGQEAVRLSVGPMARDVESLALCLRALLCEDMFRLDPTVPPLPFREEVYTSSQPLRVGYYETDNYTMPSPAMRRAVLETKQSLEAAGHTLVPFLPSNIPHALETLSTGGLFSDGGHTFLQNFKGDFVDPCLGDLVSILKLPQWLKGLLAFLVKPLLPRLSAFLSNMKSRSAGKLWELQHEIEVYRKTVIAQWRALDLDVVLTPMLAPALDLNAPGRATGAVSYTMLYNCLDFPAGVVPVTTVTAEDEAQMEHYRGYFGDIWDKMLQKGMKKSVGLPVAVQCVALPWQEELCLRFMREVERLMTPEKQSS
Protocol: as §1, §2, §3, §4, §5

SMILES	kinact/KI [1] [M⁻¹ s⁻¹]	kinact/KI [2] [M⁻¹ s⁻¹]	rFAAH kinact/Ki [1] [M⁻¹ s⁻¹]	hFAAH kinact/Ki [2] [M⁻¹ s⁻¹]
Cc1noc(NC(=O)N2CCC3(CC2)C[C@H](c2cccc(-c4ccc(F)c(F)c4)c2)CO3)c1C [Example 58, (3R)-3-(3′,4′-difluorobiphenyl-3-yl)-N-(3,4-dimethylisoxazol-5-yl)-1-oxa-8-azaspiro[4.5]decane-8-carboxamide]	707	2780	–	–
Cc1noc(NC(=O)N2CCC3(CC2)CC(c2ccc(Cl)c(Cl)c2)CO3)c1C (single isomer, unassigned) [Example 38, 3-(3,4-dichlorophenyl)-N-(3,4-dimethylisoxazol-5-yl)-1-oxa-8-azaspiro[4.5]decane-8-carboxamide]	–	–	2380	2050
Cc1noc(NC(=O)N2CCC3(CC2)CC(c2ccc(OCc4ccccc4Cl)c(Cl)c2)CO3)c1C (racemic) [Example 18, (3RS)-3-{3-chloro-4-[(2-chlorobenzyl)oxy]phenyl}-N-(3,4-dimethylisoxazol-5-yl)-1-oxa-8-azaspiro[4.5]decane-8-carboxamide]	2840	2290	–	–
Cc1noc(NC(=O)N2CCC3(CC2)CC(c2ccc(OCc4ccc(Cl)cc4)cc2)CO3)c1C (racemic) [Example 23, (3RS)-3-{4-[(4-chlorobenzyl)oxy]phenyl}-N-(3,4-dimethylisoxazol-5-yl)-1-oxa-8-azaspiro[4.5]decane-8-carboxamide]	10900	6950	–	–
Cc1noc(NC(=O)N2CCC3(CC2)CC(c2ccc(OCc4cc(F)ccc4F)cc2)CO3)c1C (racemic) [Example 31, (3RS)-3-{4-[(2,5-difluorobenzyl)oxy]phenyl}-N-(3,4-dimethylisoxazol-5-yl)-1-oxa-8-azaspiro[4.5]decane-8-carboxamide]	3220	3580	–	–
Cc1noc(NC(=O)N2CCC3(CC2)CC(c2cccc(C(F)(F)F)c2)CO3)c1C (single isomer, unassigned) [Example 66, N-(3,4-dimethylisoxazol-5-yl)-3-[3-(trifluoromethyl)phenyl]-1-oxa-8-azaspiro[4.5]decane-8-carboxamide]	2920	2140	–	–
Cc1noc(NC(=O)N2CCC3(CC2)CC(c2cccc(C(F)(F)F)c2)CO3)c1C (single isomer, unassigned) [Example 67, N-(3,4-dimethylisoxazol-5-yl)-3-[3-(trifluoromethyl)phenyl]-1-oxa-8-azaspiro[4.5]decane-8-carboxamide]	–	–	2680	1330
Cc1noc(NC(=O)N2CCC3(CC2)CC(c2noc(-c4ccc(OC(F)(F)F)cc4)n2)CO3)c1C (racemic) [Example 71, (3RS)—N-(3,4-dimethylisoxazol-5-yl)-3-{5-[4-(trifluoromethoxy)phenyl]-1,2,4-oxadiazol-3-yl}-1-oxa-8-azaspiro[4.5]decane-8-carboxamide]	1020	2610	–	–
Cc1noc(NC(=O)N2CCC3(CC2)CC(c2ccc(Cl)c(Cl)c2)CO3)c1C (racemic) [Example 15, (3RS)-3-(3,4-dichlorophenyl)-N-(3,4-dimethylisoxazol-5-yl)-1-oxa-8-azaspiro[4.5]decane-8-carboxamide]	4360	2430	–	–
Cc1noc(NC(=O)N2CCC3(CC2)CC(c2cccc(-c4ccc(OC(F)(F)F)cc4)c2)CO3)c1C (racemic) [Example 56, (3RS)-N-(3,4-dimethylisoxazol-5-yl)-3-[4′-(trifluoromethoxy)biphenyl-3-yl]-1-oxa-8-azaspiro[4.5]decane-8-carboxamide]	1140	1880	–	–
O=C(Nc1cccnn1)N1CCC2(CC1)CC(c1cccc(Oc3ccc(Cl)cn3)c1)CO2 (racemic) [Example 4, (3RS)-3-{3-[(5-chloropyridin-2-yl)oxy]phenyl}-N-pyridazin-3-yl-1-oxa-8-azaspiro[4.5]decane-8-carboxamide]	3380	2910	–	–
O=C(Nc1cccnc1)N1CCC2(CC1)CC(c1cccc(Oc3ccc(Br)cn3)c1)CO2 (racemic) [Example 6, (3RS)-3-{3-[(5-bromopyridin-2-yl)oxy]phenyl}-N-pyridin-3-yl-1-oxa-8-azaspiro[4.5]decane-8-carboxamide]	1750	2320	–	–
Cc1noc(NC(=O)N2CCC3(CC2)CC(c2cc(F)cc(Cl)c2)CO3)c1C (single isomer, unassigned) [Example 40, 3-(3-chloro-5-fluorophenyl)-N-(3,4-dimethylisoxazol-5-yl)-1-oxa-8-azaspiro[4.5]decane-8-carboxamide]	–	–	3740	2470
Cc1noc(NC(=O)N2CCC3(CC2)CC(c2cccc(-c4ccc(F)c(F)c4)c2)CO3)c1C (racemic) [Example 53, (3RS)-3-(3′,4′-difluorobiphenyl-3-yl)-N-(3,4-dimethylisoxazol-5-yl)-1-oxa-8-azaspiro[4.5]decane-8-carboxamide]	1470	2020	–	–
Cn1nnnc1NC(=O)N1CCC2(CC1)C[C@H](c1ccc(OCc3cccc(F)c3)cc1)CO2 [Example 86, (3R)-3-{4-[(3-fluorobenzyl)oxy]phenyl}-N-(1-methyl-1H-tetrazol-5-yl)-1-oxa-8-azaspiro[4.5]decane-8-carboxamide]	11200	28400	–	–
Cc1noc(NC(=O)N2CCC3(CC2)CC(c2cccc(OC(F)(F)F)c2)CO3)c1C (racemic) [Example 13, (3RS)-N-(3,4-dimethylisoxazol-5-yl)-3-[3-(trifluoromethoxy)phenyl]-1-oxa-8-azaspiro[4.5]decane-8-carboxamide]	3110	1800	–	–
Cc1noc(NC(=O)N2CCC3(CC2)CC(c2ccc(F)c(Cl)c2)CO3)c1C (racemic) [Example 28, (3RS)-3-(3-chloro-4-fluorophenyl)-N-(3,4-dimethylisoxazol-5-yl)-1-oxa-8-azaspiro[4.5]decane-8-carboxamide]	3950	1580	–	–
Cn1nnnc1NC(=O)N1CCC2(CC1)CC(c1cccc(C(F)(F)F)c1)CO2 (racemic) [Example 92]	3120	5240	–	–

Reference: patent publication US20110230493A1, “1-OXA-8-Azaspiro [4,5] Decabe-8-Carboxamide Compounds as FAAH Inhibitors” (Pfizer Inc., priority 2008, published 2011)
